Experimental data taken from PubChem BioAssay (NCI).
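Grown in 96-well plates, cells were treated for 48 hours with each compound at five concentrations. Insufficient inhibition: endpoint recorded as highest concentration tested. GI50 marks 50% less growth. The concentration for full growth arrest is given as TGI.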

What was measured:
Test in all cases: inhibition of tumour cell growth, NCI panel, 48 h
[1] = system: DMS 114 small cell lung
[2] = system: KM20L2 colon
[3] = system: RXF-631 renal
[4] = system: SNB-78 CNS
[5] = system: DMS 273 small cell lung
[6] = system: HOP-18 NSCLC
[7] = system: M19-MEL melanoma
[8] = system: XF 498 CNS
[9] = system: MDA-N

SMILES	TGI [1] [µM]	TGI [2] [µM]	TGI [3] [µM]	TGI [4] [µM]	TGI [5] [µM]	TGI [6] [µM]	TGI [7] [µM]	TGI [8] [µM]	TGI [9] [µM]	GI50 [2] [µM]	GI50 [4] [µM]	GI50 [7] [µM]	GI50 [9] [µM]
CCCCCCc1cc(C(=O)Nc2cccc(C(F)(F)F)c2)nc(N)n1	> 100	> 100	> 100	> 100	> 100	> 100	> 100	–	–	–	–	–	–
CCOC(=O)C(=O)Nc1c(CC)cccc1C(C)C	–	> 100	–	> 100	> 100	–	> 100	> 100	–	–	–	–	–
Cc1cc2c(C)n(Cc3ccc(Cl)cc3Cl)nc2c(C#N)c1C	> 100	> 56.9	–	> 76.4	> 100	> 91.6	> 100	23	–	–	–	–	–
COc1ccc(N=c2ssc3c(=S)ssc23)cc1	26	–	–	99.4	74.4	–	> 100	–	–	–	–	–	–
Brc1cccc(C2SCc3nc4ccccc4n32)c1 (stereo not drawn)	35.2	–	–	99.2	–	–	49.1	–	–	–	–	–	–
CCCCCCCCCCCC(=O)OCCOCCOCCOCCOCCOCc1ccc(OC)cc1	> 100	> 100	> 100	> 100	> 100	> 100	> 100	–	–	–	–	–	–
O=C1C(=O)N(c2ccc(Cl)c(Cl)c2)C(=O)C(=O)C1c1nc2ccccc2s1	> 100	> 100	–	> 100	> 100	> 100	> 100	–	–	–	–	–	–
CCOC(=O)C(C)(c1cn(C)c2ccccc12)c1cn(C)c2ccccc12	> 100	> 100	> 100	> 100	> 100	–	> 100	> 100	–	–	–	–	–
CN(C)c1nc(=Nc2ccc3ccccc3c2)ss1	41.3	> 100	–	> 100	–	> 100	–	–	–	–	–	–	–
CS(=O)(=O)Oc1cccc(/C=N/N=C(\N)NO)c1	> 100	–	–	> 100	65.8	> 100	> 100	32.5	–	–	–	–	–
Cn1cnc2nc(Cl)nc(NC(C)(C)C(C)(C)O)c21	> 100	> 100	–	> 100	> 100	> 100	–	> 100	–	–	–	–	–
C[Si](C)(C)OC1(C#N)C2C3CC4C2C(=O)C2C4C3C21 (stereo not drawn)	> 100	> 100	–	> 100	> 100	> 100	> 100	–	–	–	–	–	–
CC(=O)NC1=C(OS(=O)(=O)c2ccc(C)cc2)CN(C)C1=O	–	–	–	–	–	–	–	–	24.5	–	–	–	–
COc1ccc(OC)c(NC(=O)CCC/C(CC(=O)c2ccc(O)c(OC)c2)=N\NC(=O)C[N+](C)(C)C)c1	> 100	> 100	> 100	–	> 100	> 100	> 100	> 100	–	–	–	–	–
O=C(O)C/C=C/CC(=O)O	–	–	–	–	–	–	–	–	> 100	–	–	–	–
COC1CC(OS(=O)(=O)c2ccc(C)cc2)C(OC(=O)c2ccccc2)C(C)O1 (stereo not drawn)	> 100	> 100	–	> 100	> 10	> 10	> 100	> 100	–	> 100	> 100	> 100	–
CCOC(=O)C1=C(NC)OC/C1=N\NC(=O)c1ccccc1O	89.6	> 100	–	> 100	> 100	> 100	> 100	> 100	–	–	–	–	–
Cc1c(C#N)c(=O)[nH]c(=O)n1CCN1CCN(C(=O)NCCCCCCNC(=O)N2CCN(CCn3c(C)c(C#N)c(=O)[nH]c3=O)CC2)CC1	> 100	> 100	–	> 100	> 100	> 100	> 100	> 100	–	–	–	–	–

SMILES	TGI [1] [µM]	TGI [2] [µM]	TGI [3] [µM]	TGI [4] [µM]	TGI [5] [µM]	TGI [6] [µM]	TGI [7] [µM]	TGI [8] [µM]	TGI [9] [µM]	GI50 [2] [µM]	GI50 [4] [µM]	GI50 [7] [µM]	GI50 [9] [µM]
O=C(O)C1(P(=O)(O)O)CC1	> 100	> 100	–	> 100	> 100	> 100	> 100	> 100	–	–	–	–	–
COc1cc2c(cc1OC(=O)CC(C)O)C1C(OC2=O)C(OC(C)=O)C=C2CCN(C)[C@H]21 (stereo partly drawn)	–	> 100	93.9	68.8	> 100	69.4	> 100	38.6	–	–	–	–	–
COc1cccc(C=Nc2cc(C)ccn2)c1O.COc1cccc(C=Nc2cc(C)ccn2)c1O.[Cu]	–	–	–	–	–	–	–	–	41.3	–	–	–	16.3
COc1cc(C(=O)C/C(CCC(=O)Nc2ccccc2[N+](=O)[O-])=N\NC(=O)CC#N)ccc1O	–	> 100	> 100	–	> 100	> 100	> 100	> 100	–	–	–	–	–
CC(=O)OC1CCn2nnc(CO[Si](C)(C)C(C)(C)C)c21 (stereo not drawn)	> 100	> 100	–	–	> 100	> 100	–	> 100	–	–	–	–	–
CCCCNCC(=O)O[C@]1(CC)C(=O)OCc2c1cc1n(c2=O)Cc2cc3ccccc3nc2-1	4.69	> 100	6.9	> 100	0.236	48.9	6.21	2.92	23.1	–	–	–	–
C=CCOC1OC(CO[Si](C)(C)C(C)(C)C)C(OCc2ccccc2)C(OCc2ccccc2)C1OCc1ccccc1 (stereo not drawn)	–	–	–	–	–	–	–	–	> 100	–	–	–	–
O=C1C=C(Br)c2c(-c3ccccc3)oc3cccc1c23	> 100	> 100	> 100	> 100	> 100	> 100	> 100	–	66	–	–	–	–
CCC1CN2CCc3cc(OC)c(OC)cc3C2CC1CC1c2cc(OC)c(OC)cc2CCN1C(=O)C1CCCN1C(=O)OCc1ccccc1 (stereo not drawn)	26.9	31.4	33.9	31.2	30.3	53.7	28.8	30.4	–	–	–	–	–
CCOC(=O)C1Oc2ccc([N+](=O)[O-])c3c2C1(O)CCC3 (stereo not drawn)	> 100	–	> 100	> 100	> 100	–	> 100	–	–	–	–	–	–
O=S(=O)(c1ccccc1)C(CN1CCCCC1)S(=O)(=O)c1ccccc1	–	> 100	–	–	> 100	–	> 100	> 100	–	–	–	–	–
C[C@]12CCC3[C@@H](CC[C@@H]4c5nonc5CC[C@]34C)C1CCC(=O)N2 (stereo partly drawn)	–	> 100	> 100	> 100	> 100	> 100	> 100	> 100	–	–	–	–	–
Nn1c(-c2ccccc2Cl)nc2ccccc2c1=O	> 100	> 100	> 100	> 100	> 100	> 100	> 100	> 100	–	–	–	–	–
N#CC(C(=O)CCC(=O)Nc1cccc(Cl)c1)c1ccccc1 (stereo not drawn)	> 100	> 100	> 100	> 100	> 100	> 100	> 100	–	–	–	–	–	–
COc1ccc(C(OCC2OC(n3ccc(NC(=O)c4ccccc4)nc3=O)C(O)C2O)(c2ccccc2)c2ccccc2)cc1 (stereo not drawn)	–	–	–	–	–	–	–	–	3.79	–	–	–	–
CNC(=O)OCc1c(COC(=O)NC)c(C)n(-c2ccc(Br)cc2)c1C	–	–	–	–	–	–	–	–	32	–	–	–	–
C=C1COC(/C=C(\C)CC/C=C(\C)CCl)C1 (stereo not drawn)	> 100	> 100	–	> 100	> 100	–	> 100	> 100	–	–	–	–	–
